Experimental data taken from US20170224679A1, “Use of CXCR2 Antagonists For The Prevention and/or Treatment of Chemotherapy Induced Peripheral Neuropathy (CIPN)” (GlaxoSmithKline Intellectual Property Development Limited, priority 2014, published 2017).

Key:
HCT116 cell line = assay: Colorectal cancer cell line proliferation assay, HCT116; format: cell-based; settings: HCT116, compound alone 8.5 μM, non-significant
Protocol: Cell proliferation assay: Cells were seeded in 96-well plates (Costar) at different cell densities: HCT116, 500 cells per well; Caco-2, 1000 cells per well. Total volume of the medium was 90 μl per well. Cells were incubated for 24 hours at 37° C. and 5% CO2 incubator. […] The final concentration of the Compound of Formula (A) was 8.5 μM. […] The cell proliferation rate was measured by adding 100 μl of CellTiter-Glo™ (Promega) according to the manufacturer's instructions. After 10 minutes of incubation, the cell lysates were transferred into OptiPlate-384 well, the luminescence was recorded by BioTek Synergy™ 4 Hybrid Microplate Reader with Gen5 software. All data points were generated in five replicates. Three independent experiments were performed. […] All data were presented as the mean±standard error of the mean determined from three independent experiments.

Sprague-Dawley rats [1] = assay: CXCR2 antagonist effect on oxaliplatin-induced acute sensory injury rat (PWT, von Frey); format: in vivo
Protocol: If the animal withdrew or lifted the paw upon stimulation, then a hair with force immediately lower than that tested was used. If no response was observed, then a hair with force immediately higher was tested.

CXCR2 receptor [2] = target: T1, CXCR2 receptor (Homo sapiens, UniProt P25025); assay: CXCR2 Tango assay; format: cell-based; parameters: fused on or other part: TEV protease cleavage site and Gal4-VP16 transcription factor fused to the receptor (Invitrogen Tango construct); no part of the key; settings: Tango reporter gene, 80 nM hCXCL1; read-out: pIC50 against the CXCR2 receptor (converted)
T1 sequence (P25025 1-360): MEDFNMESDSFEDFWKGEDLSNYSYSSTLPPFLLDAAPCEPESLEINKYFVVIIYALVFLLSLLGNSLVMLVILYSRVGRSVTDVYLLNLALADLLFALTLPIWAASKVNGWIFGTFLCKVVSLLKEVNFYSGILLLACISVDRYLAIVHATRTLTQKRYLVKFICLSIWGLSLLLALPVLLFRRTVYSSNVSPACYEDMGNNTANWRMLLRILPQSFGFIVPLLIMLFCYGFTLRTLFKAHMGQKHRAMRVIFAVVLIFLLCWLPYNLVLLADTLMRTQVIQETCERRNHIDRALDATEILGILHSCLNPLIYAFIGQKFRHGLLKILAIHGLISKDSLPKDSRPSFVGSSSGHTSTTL
Excerpt: The assay measures ligand-induced activation of the receptor CXCR2 in a stable cell line containing the recombinant human CXCR2 linked to a TEV protease site and a Gal4-VP16 transcription factor (Invitrogen). Ligand binding to the receptor results in the recruitment of arrestin proteins (tagged with protease) to the receptor and triggers the release of a tethered transcription factor. The transcription factor enters the nucleus and activates the transcription of the reporter gene. The ability of a compound to inhibit CXCR2 activation is indirectly assessed by measuring the reporter gene activity.
A vial of cryopreserved cells was removed from liquid nitrogen and rapidly thawed in a water bath at 37° C. with gentle agitation. The cell contents were collected and resuspended in Assay Medium at a density of ˜200,000 cells/ml. All test compounds were dissolved in DMSO at a concentration of 10 mM and then were serially diluted to generate a 10-point dose response curve into 384-well assay plate (Greiner 781090) using an Echo (Labcyte) concentration-response program (50 nl/well). The cell-free, un-stimulated and positive controls were loaded with 50 nl/well pure DMSO to ensure that the DMSO concentration was constant across the plate for all assays. Using Multi-drop Combi (Thermo) with standard cassette, 50 μl of Assay Medium was added to cell-free control wells in compound-containing assay plate; 50 μl of the cell suspension without hCXCL1 (a CXCR2 ligand) was added to un-stimulated control wells (10,000 cells per well); and 50 μl of the cell suspension with 80 nM hCXCL1 was added to the rest of wells of the assay plate (10,000 cells per well). The cells were incubated overnight at 37° C./5% CO2·10 μl of 6× substrate mixture (LiveBLAzer™-FRET B/G substrate (CCF4-AM) Cat #K1096 from Invitrogen, Inc.) was added to each well using Multi-drop Combi (Thermo) with small-tube cassette and the plate was incubated at room temperature for 2 h in the dark. The plate was then read on EnVision using one excitation channel (409 nm) and two emission channels (460 nm and 530 nm).
The blue/green emission ratio (460 nm/530 nm) was calculated for each well by dividing the background-subtracted Blue emission values by the background-subtracted Green emission values. The dose response curve was based on sigmoidal dose-response model. All ratio data was normalized based upon the maximum emission ratio of positive control (hCXCL1) and minimum emission ratio of negative control (DMSO) on each plate.

CXCR2 receptor [3] = target: T1, CXCR2 receptor; assay: Human whole blood assay version i) (CD11b, CXCL1 stimulated); format: cell-based; parameters: Assay d) measures the cellular functional activity to the native expressed human CXCR2 in whole blood; endogenous in cells; host or cells: human whole blood (neutrophils); settings: 10 nM CXCL1, neutrophil CD11b, read-out: pIC50 against the CXCR2 receptor (converted)
Protocol: Human blood was obtained from healthy consenting adults by trained medical professionals by venipuncture in a 10 ml syringe containing 225 μI of 0.25 M EDTA and filling with 7 ml of blood (maintained at 37° C. throughout the CXCL1 stimulation).
The test compounds were dissolved in 100% DMSO to a concentration of 10 mM and diluted to 12× the assay concentration in 1.2% DMSO (final concentration DMSO of 0.1%).
Assay: 100 μI of whole blood was added to assay tubes or 96 well U-bottom clear plates containing 10 μI of 1.2% DMSO (assay concentration of 0.1%) or 10 μI of compound dissolved in 1.2% DMSO (assay concentration range of 0.1 μM to 10 μM), then incubated for 10 minutes at 37° C., followed by addition of 10 μI of 0.1% BSA in DPBS (negative controls) or 10 μI of 120 nM CXCL1 (GROα, Prepro Tech, Inc) dissolved in 0.1% BSA in DPBS (assay concentration of 10 nM which is the EC80 for CXCL1) and incubated at 37° C. for an additional 10 min with gentle agitation before being placed on ice and assay terminated by adding 250 μI of CellFix or 250 μI of 3.7% v/v paraformaldehyde (BD Biosciences). […] Before being analyzed using an LSR flow cytometer (Becton-Dickinson) or FACS Canto II, cells were stained for 10 minutes at 4° C. with 10 μI of LDS-751 (Molecular Probes), a nucleic acid stain, allowing a cytometer threshold setting to exclude red blood cells. […]

Sprague-Dawley rats [4] = assay: CXCR2 antagonist effect on repeat dosing oxaliplatin induced sensory injury rat; settings: oxaliplatin-treated rats, 20 mg/kg p.o. b.i.d. 4 weeks
Protocol: Male Sprague-Dawley rats (109-167 g, ˜5weeks old) were housed in cages in groups of three in a controlled environment of constant temperature and moisture (temperature: 25±3° C., light: dark cycle of 12:12 hours) with food (25 g/rat/day of LabDiet 5053) and water available ad libitum.
MC (Sigma Cat #423238) was made up in water at 1% (w/v) (1 g per 100 mL water) and left on a stirrer until completely dissolved. The formulation was prepared every 6-8 days in 400-700 mL each time and stored at 4° C. protected from light. The dosing volume used was 10 mL/kg to give a 20 mg/kg p.o. dose. Vehicle treated animals were dosed b.i.d. with 1% MC w/v at 10 mL/kg p.o.
A fresh solution was prepared before every injection. Control vehicle animals were treated with 5% w/v Gluclose at 5ml/kg. Glucose (Sigma Aldrich Cat #G7021) was made up in milli-Q water at 5% (w/v) (5 g per 100 mL water) and left on a stirrer until completely dissolved.
Body weight tracking: The bodyweights of rats were measured twice a week for 4 weeks on Days 1, 3, 9, 11, 16, 18, 23, and 25. […]
Rats were anesthetized with chloral hydrate (350 mg/kg, 3.5 mL/kg, i.p.). […] The right sciatic nerve was carefully identified and conduction velocity was measured by recording action potentials from an electrode placed between the second and third digits as described by Jamieson et al., Br. J. Cancer, 88(12):1942-7 (2003), and electrically stimulating the nerve (5V, 0.5 s, single-wave pulses) via a platinum wire electrode at the sciatic notch and ankle. The length between the sciatic notch and ankle was measured.
The nerve conduction velocity was calculated as the length between sciatic notch and ankle divided by the difference between the time latencies at the stimulation sites [latency (sciatic notch)−latency (ankle)].
A 1 cm segment of the left sciatic nerve (distal end) was located and carefully dissected out. […] The ratio of inner area over entire area of nerve fibers of sciatic nerves was then calculated as an indicator of thickness of myelin sheath of nerves.

CXCR2 receptor [5] = target: T1, CXCR2 receptor; assay: GPCR Arrestin Assay (DiscoveRX PathHunter), CXCR2; format: cell-based; parameters: host or cells: PathHunter CHO cell lines
Protocol: Certain compounds of the invention were also tested by DiscoveRX Corporation (42501 Albrae Street, Fremont, Calif. 94538, United States) in their GPCR Arrestin Assay to determine their activity against a panel of receptors including CXCR2 and CXCR1. PathHunter CHO cell lines were expanded from freezer stocks according to standard procedures. Cells were seeded in a total volume of 20 μL into white walled, 384-well microplates and incubated at 37° C. for the appropriate time prior to testing. The cells were pre-incubated with antagonist followed by agonist challenge at the EC80 concentration. Intermediate dilution of sample stocks was performed to generate 5× sample in assay buffer. 5 μL of 5× sample was added to cells and incubated at 37° C. or room temperature for 30 minutes. […] Assay signal was generated through a single addition of 12.5 or 15 μL (50% v/v) of PathHunter Detection reagent cocktail, followed by one hour incubation at room temperature. Microplates were read following signal generation with a PerkinElmer Envision™ instrument for chemiluminescent signal detection. Compound activity was analyzed using CBIS data analysis suite (ChemInnovation, Calif.).

Row | SMILES | decrease of basal proliferation (HCT116 cell line) | oxaliplatin induced mechanical allodynia (PWT) vs oxaliplatin and vehicle group (Sprague-Dawley rats [1]; Day 3, 5, 20 and 50 mg/kg p.o. b.i.d. from Day -1) | oxaliplatin induced mechanical allodynia (PWT) vs oxaliplatin and vehicle group (Sprague-Dawley rats [1]; Day 7, 20 and 50 mg/kg p.o. b.i.d. only) | IC50 (CXCR2 receptor [2]) | IC50 (CXCR2 receptor [3]) | sciatic nerve conduction velocity between sciatic notch and ankle (Sprague-Dawley rats [4]; Day 29-31, mean±SEM) | ratio of inner area over entire area of the nerve fibers (myelin sheath thickness) (Sprague-Dawley rats [4]; left sciatic nerve, mean±SEM) | selectivity for CXCR2 over CXCR1 (CXCR2 receptor [5]; GPCR Arrestin Assay e)) | IC50 (CXCR2 receptor [5]; PathHunter CHO cells, agonist at EC80, read-out: pIC50 against the CXCR2 receptor (converted))
1 | O=C(Nc1ccc(Cl)c(S(=O)(=O)N2CCNCC2)c1O)Nc1cccc(F)c1Cl [Compound of Formula (A), 1-(4-chloro-2-hydroxy-3-(piperazin-1-ylsulfonyl)phenyl)-3-(2-chloro-3-fluorophenyl)urea] | 8.9±0.7% | reduced the mechanical allodynia | robust reduction of the mechanical allodynia | 0.631 nM | 2000 nM | 40.83±1.45 m/s | 0.17±0.01 |  | 
2 | CN1CCC(C)(S(=O)(=O)c2c(Cl)ccc(NC(=O)Nc3cccc(F)c3Cl)c2O)CC1 [Compound of Formula (D), 1-(4-chloro-3-((1,4-dimethylpiperidin-4-yl)sulfonyl)-2-hydroxyphenyl)-3-(2-chloro-3-fluorophenyl)urea] |  |  |  | 1.26 nM | 3980 nM |  |  | 29 fold | 100 nM
